Measurements as given in patent US4255519A, “Glycerol oxidase and process for the production thereof” (priority 1978, dated 1981).

Test system: glycerol oxidase II
Experiment: Inhibitors of enzyme: activity with 1 mM inhibitor, oxygen consumption rate by Warburg's manometer
Format: biochemical, Penicillium sp. KY 868
Settings: activity with no inhibitor defined as 100, from oxygen consumption rate
Method: Enzymes activities obtained by adding 1 mM of various inhibitors are shown in Table 1, the activity of the enzyme with no addition of the inhibitor being defined as 100. The activities are calculated from consumption rate of oxygen used in reaction measured by Warburg's manometer.
With `[Cl-].[Cl-].[Zn+2]` [ZnCl2] the “Relative rate (%)” value was 84.3%.
In the case of `NO` [NH2 OH], the “Relative rate (%)” value is reported as 0%.
With `[Cl][Hg][Cl]` [HgCl2] the “Relative rate (%)” value was 79.0%.
For `O=C(O)c1cc[c]([Hg][Cl])cc1` [p-Chloromercuri benzoate], the “Relative rate (%)” value was 81.4%.
For `O=[N+]([O-])[O-].[Ag+]` [AgNO3], the “Relative rate (%)” value was 0%.
For `c1ccc(-c2ccccn2)nc1` [α,α'-Dipyridyl], the “Relative rate (%)” value was 75.7%.
For `c1cnc2c(c1)ccc1cccnc12` [o-Phenanthroline], the “Relative rate (%)” value was 65.5%.
For `CC(=O)[O-].CC(=O)[O-].[Pb+2]` [Pb(CH3 COO)2], the “Relative rate (%)” value was 26.3%.
For `O=S(=O)([O-])[O-].[Fe+2]` [FeSO4], the “Relative rate (%)” value was 0%.
For `O=C(O)CN(CCN(CC(=O)O)CC(=O)O)CC(=O)O` [EDTA], the “Relative rate (%)” value was 82.8%.
With `Cc1ccc2ccc3ccc(C)nc3c2n1` [Neocuproine] the “Relative rate (%)” value was 80.3%.
In the case of `CCN(CC)C(=S)S` [Diethyl dithiocarbamate], the “Relative rate (%)” value is reported as 0%.

Test system: glycerol oxidase II
Experiment: Substrate specificity, relative activity by 4-AA method
Format: biochemical, Penicillium sp. KY 868
Settings: not given
Method: The relative activity is measured using other substrates in equimolar amounts to that of glycerol in the procedure for measuring the activity according to 4-AA method.
The relative activities on other substrates are given in Table 3, the activity on glycerol being defined as 100.
The enzyme activity is expressed by "unit." A "unit" of the enzyme activity is defined as that amount of enzyme which will decompose 1 μ mole of glycerol at 37° C. in 1 minute in the presence of oxygen. The determination of the enzyme activity is carried out as follows: glycerol is reacted with glycerol oxidase II with stirring to form hydrogen peroxide, and 4-aminoantipyrine and phenol are reacted with the resulting hydrogen peroxide in the presence of peroxidase to derive quinoneimine pigment. The optical density in the visible portion of the resulting quinoneimine pigment is measured to determine the amount of generated hydrogen peroxide, whereby the enzyme activity is determined (which will be hereinafter referred to as "4-AA method").
The reagents (1)-(6) are mixed in a test tube, and then shaken at 37° C. for 5 minutes. Then, enzyme solution is added thereto, and thus obtained mixture is made up to 3 ml with TES buffer solution. Reaction is carried out at 37° C. for 10 minutes with shaking. On the other hand, similar procedure is repeated using water in place of the test solution as a reference. The optical density of the reaction solution at 500 nm is measured, and a difference from the control is determined as ΔOD (optical density).
With `O=C(CO)CO` [Dihydroxyacetone] the “Substrate specificity (in words)” value was “reacts specifically”.
With `OCC(O)CO` [Glycerol] the “Substrate specificity (in words)” value was “reacts specifically”.

Same assay, conditions: substrate equimolar to glycerol; activity on glycerol defined as 100; 4-AA method
`CCCCO` [n-Butyl alcohol] gave a Relative activity of 7.
In the case of `OCCCCO` [1,4-Butanediol], the Relative activity is reported as 11.
Work on `O=P(O)(O)OCC(O)CO` (stereo not shown) [Glycerol-3-phosphoric acid] yielded a Relative activity of 12.
`O=C(CO)CO` [Dihydroxyacetone] gave a Relative activity of 293.
With `CCO` [Ethanol] the Relative activity was 11.
Work on `OCC(O)CO` [Glycerol] yielded a Relative activity of 100.
With `CCC(C)O` (stereo not shown) [sec-Butyl alcohol] the Relative activity was 9.
Work on `CC(O)C(C)O` (stereo not shown) [2,3-Butanediol] yielded a Relative activity of 16.
Compound `CC(C)CO` [iso-Butyl alcohol] has a Relative activity of 14.
Work on `CC(O)CCO` (stereo not shown) [1,3-Butanediol] yielded a Relative activity of 11.
`CC(O)CO` (stereo not shown) [1,2-Propanediol] gave a Relative activity of 11.
For `CC(C)O` [iso-Propyl alcohol], the Relative activity was 23.
`CCCO` [n-Propyl alcohol] showed a Relative activity of 11.
`OCCCO` [1,3-Propanediol] gave a Relative activity of 23.

Test system: glycerol oxidase II
Experiment: Substrate affinity: Michaelis constant against glycerol
Format: biochemical, Penicillium sp. KY 868
Settings: glycerol oxidase II of the genus Penicillium
Excerpt: *Determination of Michaelis constant is described in the following reference. H. Lineweaver and D. Burk, J. Amer. Chem. Soc., 56, 658 (1934).
Work on `OCC(O)CO` [Glycerol] yielded a Km of 8 mM.

Test system: glycerol oxidase I
Experiment: not given
Settings: glycerol oxidase I of Aspergillus japonicus (U.S. application Ser. No. 897,695); cited from earlier work
In the case of `OCC(O)CO` [Glycerol], the Km is listed as 18.5 mM.

Test system: glycerol oxidase I
Experiment: not given
Settings: glycerol oxidase I of Neurospora crassa (U.S. application Ser. No. 897,695); cited from earlier work
For `OCC(O)CO` [Glycerol], the Km is given as 19 mM.
